Each structure is given as a SMILES string.

The test concerns the target T1, RNR (RNR1:RNR2 1:1) (Homo sapiens, UniProt P23921).
T1 sequence (P23921 1-792): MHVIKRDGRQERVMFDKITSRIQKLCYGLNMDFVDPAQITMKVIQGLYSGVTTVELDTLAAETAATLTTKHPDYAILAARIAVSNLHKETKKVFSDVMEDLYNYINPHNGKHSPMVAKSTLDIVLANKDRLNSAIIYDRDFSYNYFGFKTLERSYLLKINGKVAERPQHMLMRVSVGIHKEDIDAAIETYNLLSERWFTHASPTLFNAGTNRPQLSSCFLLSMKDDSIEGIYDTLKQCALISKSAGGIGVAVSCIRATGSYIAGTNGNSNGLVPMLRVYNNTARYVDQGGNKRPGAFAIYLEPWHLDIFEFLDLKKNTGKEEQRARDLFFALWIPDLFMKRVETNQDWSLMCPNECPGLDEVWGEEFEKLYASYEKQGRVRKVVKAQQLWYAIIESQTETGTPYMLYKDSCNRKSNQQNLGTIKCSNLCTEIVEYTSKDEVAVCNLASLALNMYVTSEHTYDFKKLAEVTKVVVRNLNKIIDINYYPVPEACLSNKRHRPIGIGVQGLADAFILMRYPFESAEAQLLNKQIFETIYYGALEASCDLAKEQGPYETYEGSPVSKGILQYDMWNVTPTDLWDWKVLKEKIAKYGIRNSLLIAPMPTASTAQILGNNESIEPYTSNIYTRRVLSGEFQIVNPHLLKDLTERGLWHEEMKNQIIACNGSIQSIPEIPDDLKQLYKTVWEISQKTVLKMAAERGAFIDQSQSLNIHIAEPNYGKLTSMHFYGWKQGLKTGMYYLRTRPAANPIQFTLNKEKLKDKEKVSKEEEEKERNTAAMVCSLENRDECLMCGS
In words: RNR enzyme activity, rapid-fire mass spectrometry (RFMS) assay. Type of test: biochemical. Conditions: RNR 50 nM, CDP 5 μM, ATP 1 mM, 37° C., 45 min, compounds screened up to 50 μM, read-out: RF/MS IC50. As for the experimental part:
A rapid-fire mass spectrometry (RFMS) assay was used to assess RNR enzyme activity using a 384 well plate and a robotic platform.
The plate layout included two validated reference compounds (Triapine (3-AP) and Hydroxyurea (HU)): • A dose response in duplicate; top concentration: 5 μM (3-AP) and 250 μM (HU), semi-log dilutions. • Spike wells in triplicate randomly spotted at four concentrations: • 250 μM, 100 μM, 30 μM and 2 μM for HU • 5 μM, 2 μM, 0.6 μM and 0.04 μM for 3-AP
First, the multidrop pipes were saturated for 30 minutes with enzymatic solution. Then 30 μL of Stop solution was distributed in column 24. Next, 15 μL of enzyme was distributed in column 1 to 24. Next, a pre-incubation step of 15 minutes at room temperature occurred, followed by distribution of 15 μL of substrate solution (column 1 to 24). Next, the plate was incubated for 45 minutes at 37° C. 30 μL of Stop solution was distributed to columns 1 to 23.
The final parameters for the enzyme reactions were: • Incubation: 37° C., 45 min • [CDP]: 5 μM; [ATP]: 1 mM; [NADPH]: No • [RNR] final: 50 nM with 1:1 (RNR1:RNR2) ratio • Final volume: 30 μL • Stop solution: 6% HCOOH containing 2 μM of 15
Turning to `Cc1ccc(F)c(C(C)[C@H](NS(=O)(=O)N2CC3C(C2)C3(F)F)c2n[nH]c(=O)o2)c1C` (stereo partly drawn) [Example 106, 6,6-difluoro-N-((1S)-2-(6-fluoro-2,3-dimethylphenyl)-1-(5-oxo-4,5-dihydro-1,3,4-oxadiazol-2-yl)propyl)-3-azabicyclo[3.1.0]hexane-3-sulfonamide], the IC50 was in the range of 100 to 1000 nM.

`Cc1ccc(F)c([C@H](C)[C@H](NS(=O)(=O)N2CCC(C(F)F)CC2)c2n[nH]c(=O)o2)c1C` [Example 44, 4-(difluoromethyl)-N-((1S,2S)-2-(6-fluoro-2,3-dimethylphenyl)-1-(5-oxo-4,5-dihydro-1,3,4-oxadiazol-2-yl)propyl)piperidine-1-sulfonamide]: the IC50 lay in the range of 1000 to 10000 nM.

In the case of `Cc1ccc(F)c([C@@H](C)[C@H](NS(=O)(=O)N2CCC3(CCCN(C)C3)CC2)c2n[nH]c(=O)o2)c1C` [Example 83, N-((1S,2R)-2-(6-fluoro-2,3-dimethylphenyl)-1-(5-oxo-4,5-dihydro-1,3,4-oxadiazol-2-yl)propyl)-2-methyl-2,9-diazaspiro[5.5]undecane-9-sulfonamide], the IC50 lay within 1000 to 10000 nM.

As for `Cc1ccc(F)c([C@H](C)[C@H](NS(=O)(=O)N2CCC3(CC2)CC(=O)N(C)C3)c2n[nH]c(=O)o2)c1C` [Example 77, N-((1S,2S)-2-(6-fluoro-2,3-dimethylphenyl)-1-(5-oxo-4,5-dihydro-1,3,4-oxadiazol-2-yl)propyl)-2-methyl-3-oxo-2,8-diazaspiro[4.5]decane-8-sulfonamide], the IC50 is 10000 to 100000 nM.

With `Cc1ccc(F)c([C@H](C)[C@H](NS(=O)(=O)N2CCC3(CC2)OCCCO3)c2n[nH]c(=O)o2)c1C` [Example 86, N-((1S,2S)-2-(6-fluoro-2,3-dimethylphenyl)-1-(5-oxo-4,5-dihydro-1,3,4-oxadiazol-2-yl)propyl)-1,5-dioxa-9-azaspiro[5.5]undecane-9-sulfonamide], the IC50 fell in the range of 1000 to 10000 nM.

On to `Cc1ccc(F)c([C@@H](C)[C@H](NS(=O)(=O)N2CC3C(C2)C3(C)C)c2n[nH]c(=O)o2)c1C` (stereo partly drawn) [Example 102, N-((1S,2R)-2-(6-fluoro-2,3-dimethylphenyl)-1-(5-oxo-4,5-dihydro-1,3,4-oxadiazol-2-yl)propyl)-6,6-dimethyl-3-azabicyclo[3.1.0]hexane-3-sulfonamide], for which the IC50 was in the range of 100 to 1000 nM.

For `Cc1ccc(F)c([C@H](C)[C@H](NS(=O)(=O)N2CCC(c3c[nH]c4ccccc34)CC2)c2n[nH]c(=O)o2)c1C` [Example 69, N-((1S,2S)-2-(6-fluoro-2,3-dimethylphenyl)-1-(5-oxo-4,5-dihydro-1,3,4-oxadiazol-2-yl)propyl)-4-(1H-indol-3-yl)piperidine-1-sulfonamide], the IC50 lay in the range of 10000 to 100000 nM.

For `Cc1ccc(F)c(C(C)[C@H](NS(=O)(=O)N2CCC(C(F)(F)F)CC2)c2n[nH]c(=O)o2)c1C` (stereo partly drawn) [Example 33, N-((1S)-2-(6-fluoro-2,3-dimethylphenyl)-1-(5-oxo-4,5-dihydro-1,3,4-oxadiazol-2-yl)propyl)-4-(trifluoromethyl)piperidine-1-sulfonamide], the IC50 lay within 1000 to 10000 nM.

On to `Cc1ccc(F)c([C@@H](C)[C@H](NS(=O)(=O)N2CCC3(CC2)OCCO3)c2n[nH]c(=O)o2)c1C` [Example 133, N-((1S,2R)-2-(6-fluoro-2,3-dimethylphenyl)-1-(5-oxo-4,5-dihydro-1,3,4-oxadiazol-2-yl)propyl)-1,4-dioxa-8-azaspiro[4.5]decane-8-sulfonamide], for which the IC50 is 10000 to 100000 nM.

On to `Cc1ccc(F)c(C(C)[C@H](NS(=O)(=O)N2CCC(c3noc4ccc(F)cc34)CC2)c2n[nH]c(=O)o2)c1C` (stereo partly drawn) [Example 74, N-((1S)-2-(6-fluoro-2,3-dimethylphenyl)-1-(5-oxo-4,5-dihydro-1,3,4-oxadiazol-2-yl)propyl)-4-(5-fluorobenzo[d]isoxazol-3-yl)piperidine-1-sulfonamide], for which the IC50 is 100 to 1000 nM.

Take `Cc1ccc(F)c([C@H](C)[C@H](NS(=O)(=O)N2CCC(C)(C)CC2)c2n[nH]c(=O)o2)c1C` [Example 114, N-((1S,2S)-2-(6-fluoro-2,3-dimethylphenyl)-1-(5-oxo-4,5-dihydro-1,3,4-oxadiazol-2-yl)propyl)-4,4-dimethylpiperidine-1-sulfonamide]: the IC50 fell in the range of 1000 to 10000 nM.

With `Cc1ccc(F)c([C@@H](C)[C@H](NS(=O)(=O)N2CCC3(CCCC3)CC2)c2n[nH]c(=O)o2)c1C` [Example 71, N-((1S,2R)-2-(6-fluoro-2,3-dimethylphenyl)-1-(5-oxo-4,5-dihydro-1,3,4-oxadiazol-2-yl)propyl)-8-azaspiro[4.5]decane-8-sulfonamide], the IC50 lay within 100 to 1000 nM.

On to `Cc1ccc(F)c([C@@H](C)[C@H](NS(=O)(=O)N2CCC(CCl)CC2)c2n[nH]c(=O)o2)c1C` [Example 41, 4-(chloromethyl)-N-((1S,2R)-2-(6-fluoro-2,3-dimethylphenyl)-1-(5-oxo-4,5-dihydro-1,3,4-oxadiazol-2-yl)propyl)piperidine-1-sulfonamide], for which the IC50 is 100 to 1000 nM.

Take `Cc1ccc(F)c([C@@H](C)[C@H](NS(=O)(=O)N2CC3CCCC(C3)C2)c2n[nH]c(=O)o2)c1C` [Example 43, N-((1S,2R)-2-(6-fluoro-2,3-dimethylphenyl)-1-(5-oxo-4,5-dihydro-1,3,4-oxadiazol-2-yl)propyl)-3-zabicyclo[3.3.1]nonane-3-sulfonamide]: the IC50 lay within 1000 to 10000 nM.

Consider `CNC(=O)C1CCN(S(=O)(=O)N[C@H](c2n[nH]c(=O)o2)[C@@H](C)c2c(F)ccc(C)c2C)CC1` [Example 56, 1-(N-((1S,2S)-2-(6-fluoro-2,3-dimethylphenyl)-1-(5-oxo-4,5-dihydro-1,3,4-oxadiazol-2-yl)-propyl)sulfamoyl)-N-methylpiperidine-4-carboxamide], for which the IC50 was 10000 to 100000 nM.

Regarding `Cc1ccc(F)c(C(C)[C@H](NS(=O)(=O)N2CCCCC2C#N)c2n[nH]c(=O)o2)c1C` (stereo partly drawn) [Example 3, 2-cyano-N-[(1S)-2-(6-fluoro-2,3-dimethylphenyl)-1-(5-oxo-4H-1,3,4-oxadiazol-2-yl)propyl]piperidine-1-sulfonamide], the IC50 lay in the range of 1000 to 10000 nM.

For the compound `CC(=O)[C@@H]1CCCCN1S(=O)(=O)N[C@H](c1n[nH]c(=O)o1)[C@H](C)c1c(F)ccc(C)c1C` [Example 17, (S)-2-acetyl-N-((1S,2R)-2-(6-fluoro-2,3-dimethylphenyl)-1-(5-oxo-4,5-dihydro-1,3,4-oxadiazol-2-yl)propyl)piperidine-1-sulfonamide], the IC50 lay within 10000 to 100000 nM.

As to `CNC(=O)CC1CCN(S(=O)(=O)N[C@H](c2n[nH]c(=O)o2)C(C)c2c(F)ccc(C)c2C)CC1` (stereo partly drawn) [Example 66, 2-(1-(N-((1S)-2-(6-fluoro-2,3-dimethylphenyl)-1-(5-oxo-4,5-dihydro-1,3,4-oxadiazol-2-yl)propyl)sulfamoyl)piperidin-4-yl)-N-methylacetamide], the IC50 was in the range of 10000 to 100000 nM.

Take `Cc1ccc(F)c([C@@H](C)[C@H](NS(=O)(=O)N2CCCC(C(C)O)C2)c2n[nH]c(=O)o2)c1C` (mixture of isomers) [Example 27, rac-N-((1R,2S)-2-(6-fluoro-2,3-dimethylphenyl)-1-(5-oxo-4,5-dihydro-1,3,4-oxadiazol-2-yl)propyl)-3-(1-hydroxyethyl)piperidine-1-sulfonamide]: the IC50 lay in the range of 100 to 1000 nM.

Regarding `Cc1ccc(F)c([C@H](C)[C@H](NS(=O)(=O)N2CCC(C)CC2)c2n[nH]c(=O)o2)c1C` [Example 116, N-((1S,2S)-2-(6-fluoro-2,3-dimethylphenyl)-1-(5-oxo-4,5-dihydro-1,3,4-oxadiazol-2-yl)propyl)-4-methylpiperidine-1-sulfonamide], the IC50 is 1000 to 10000 nM.

Take `Cc1ccc(F)c([C@@H](C)[C@H](NS(=O)(=O)N2CCC(Oc3ccccn3)CC2)c2n[nH]c(=O)o2)c1C` [Example 70, N-((1S,2R)-2-(6-fluoro-2,3-dimethylphenyl)-1-(5-oxo-4,5-dihydro-1,3,4-oxadiazol-2-yl)propyl)-4-(pyridin-2-yloxy)piperidine-1-sulfonamide]: the IC50 lay in the range of 100 to 1000 nM.

Source of the values: patent US20240425490A1, “SULFAMIDE RIBONUCLEOTIDE REDUCTASE (RNR) INHIBITORS AND USES THEREOF” (Boundless Bio, Inc., priority 2021, published 2024).
